The record followed here is patent publication US20050245399A1, “Pyrazole derivatives as herbicidal compositions containing them” (ISHIHARA SANGYO KAISHA, LTD., priority 2004, published 2005).

The first assay relates to barnyardgrass (Echinochloa crus-galli L.): ECHCG. The assay can be described thus: Test Example 1 pre-emergence herbicidal activity, ECHCG. It is filed as in vivo. To be noted: Rate 63 g a.i./ha, visually observed 20th to 23rd day after application. An outline of the steps: (§1)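 Percent growth control, rated visually 20–23 d after a pre-emergence spray applied 1 d post-sowing; compound formulated as WP or EC in 500 L/ha water at a predetermined a.i. amount.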
For the compound `COc1c(Cl)cc(F)c(-c2nn(C)c(OC(F)F)c2Cl)c1NC(=O)/C=C/c1ccccc1` [Compound 1-31], the “Pre-emergence Herbicidal Activity ECHCG (growth controlling degree)” value turned out to be 80%.

A further assay has as its system crabgrass (Digitaria sanguinalis L.): DIGSA. Kind of assay: Test Example 1 pre-emergence herbicidal activity, DIGSA. The assay is classed as in vivo. To be noted: Rate 63 g a.i./ha, visually observed 20th to 23rd day after application. An outline of the steps:
as §1
In the case of `COc1c(Cl)cc(F)c(-c2nn(C)c(OC(F)F)c2Cl)c1NC(=O)/C=C/c1ccccc1` [Compound 1-31], the “Pre-emergence Herbicidal Activity DIGSP (growth controlling degree)” value came out at 100%.

For the next assay, the system named is green foxtail (Setaria viridis L.): SETVI. The assay can be described thus: Test Example 1 pre-emergence herbicidal activity, SETVI. The assay is classed as in vivo. To be noted: Rate 63 g a.i./ha, visually observed 20th to 23rd day after application. An outline of the steps: as §1
For the compound `COc1c(Cl)cc(F)c(-c2nn(C)c(OC(F)F)c2Cl)c1NC(=O)/C=C/c1ccccc1` [Compound 1-31], the “Pre-emergence Herbicidal Activity SETVI (growth controlling degree)” value is 100%.

The subject of the next assay is redroot pigweed (Amaranthus retroflexus L.): AMARE. The assay can be described thus: Test Example 1 pre-emergence herbicidal activity, AMARE. The assay is classed as in vivo. To be noted: Rate 63 g a.i./ha, visually observed 20th to 23rd day after application. An outline of the steps: as §1
As for `COc1c(Cl)cc(F)c(-c2nn(C)c(OC(F)F)c2Cl)c1NC(=O)/C=C/c1ccccc1` [Compound 1-31], the “Pre-emergence Herbicidal Activity AMARE (growth controlling degree)” value stood at 100%.

The test system of a further assay is prickly sida (Sida spinosa L.): SEDSP. The assay can be described thus: Test Example 1 pre-emergence herbicidal activity, SIDSP. To be noted: Rate 63 g a.i./ha, visually observed 20th to 23rd day after application. The assay is classed as in vivo. An outline of the steps:
as §1
Take `COc1c(Cl)cc(F)c(-c2nn(C)c(OC(F)F)c2Cl)c1NC(=O)/C=C/c1ccccc1` [Compound 1-31]: the “Pre-emergence Herbicidal Activity SIDSP (growth controlling degree)” value was 100%.

A further assay concerns velvetleaf (Abutilon theophrasti): ABUTH. The assay can be described thus: Test Example 1 pre-emergence herbicidal activity, ABUTH. It is filed as in vivo. To be noted: Rate 63 g a.i./ha, visually observed 20th to 23rd day after application. An outline of the steps: as §1
Regarding `COc1c(Cl)cc(F)c(-c2nn(C)c(OC(F)F)c2Cl)c1NC(=O)/C=C/c1ccccc1` [Compound 1-31], the “Pre-emergence Herbicidal Activity ABUTH (growth controlling degree)” value came out at 100%.

Another assay has as its system rice (Oryza sativa L.): ORYSA. Kind of assay: Test Example 1 pre-emergence herbicidal activity, ORYSA. It is filed as in vivo. To be noted: Rate 63 g a.i./ha, visually observed 20th to 23rd day after application. The method in brief: as §1
`COc1c(Cl)cc(F)c(-c2nn(C)c(OC(F)F)c2Cl)c1NC(=O)/C=C/c1ccccc1` [Compound 1-31]: the “Pre-emergence Herbicidal Activity ORYSA (growth controlling degree)” value was found to be 50%.

A further assay concerns wheat (Triticum aestivum L.): TRZAX. Kind of assay: Test Example 1 pre-emergence herbicidal activity, TRZAX. It is filed as in vivo. To be noted: Rate 63 g a.i./ha, visually observed 20th to 23rd day after application. An outline of the steps: as §1
In the case of `COc1c(Cl)cc(F)c(-c2nn(C)c(OC(F)F)c2Cl)c1NC(=O)/C=C/c1ccccc1` [Compound 1-31], the “Pre-emergence Herbicidal Activity TRZAX (growth controlling degree)” value worked out at 10%.

A further assay relates to corn (Zea mays L.): ZEAMX. The assay can be described thus: Test Example 1 pre-emergence herbicidal activity, ZEAMX. To be noted: Rate 63 g a.i./ha, visually observed 20th to 23rd day after application. The assay is classed as in vivo. The method in brief:
as §1
As for `COc1c(Cl)cc(F)c(-c2nn(C)c(OC(F)F)c2Cl)c1NC(=O)/C=C/c1ccccc1` [Compound 1-31], the “Pre-emergence Herbicidal Activity ZEAMX (growth controlling degree)” value came out at 10%.

In the next assay the test system is soybean (Glycine max Merr.): GLXMA. Kind of assay: Test Example 1 pre-emergence herbicidal activity, GLXMA. It is filed as in vivo. To be noted: Rate 63 g a.i./ha, visually observed 20th to 23rd day after application. The method in brief:
as §1
Regarding `COc1c(Cl)cc(F)c(-c2nn(C)c(OC(F)F)c2Cl)c1NC(=O)/C=C/c1ccccc1` [Compound 1-31], the “Pre-emergence Herbicidal Activity GLXMA (growth controlling degree)” value came out at 10%.

For another assay, the system named is barnyardgrass (Echinochloa crus-galli L.), ECHCG. The assay can be described thus: Test Example 2 post-emergence (foliage treatment) herbicidal activity, ECHCG. It is filed as in vivo. To be noted: 63 g a.i./ha. An outline of the steps:
(§2)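 Each species was evaluated for growth suppression by eye, 0% matching untreated and 100% meaning death, some 20 to 23 days after a single post-emergence foliar treatment applied in 500 L/ha of water carrying 0.1% (v/v) agricultural spreader.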
Take `COc1c(Cl)cc(F)c(-c2nn(C)c(OC(F)F)c2Cl)c1NC(=O)/C=C/c1ccccc1` [Compound 1-31]: the “growth controlling degree, ECHCO” value is 80%.

In the next assay the test system is crabgrass (Digitaria sanguinalis L.), DIGSA. Kind of assay: Test Example 2 post-emergence (foliage treatment) herbicidal activity, DIGSA. The assay is classed as in vivo. To be noted: 63 g a.i./ha. An outline of the steps: as §2
For `COc1c(Cl)cc(F)c(-c2nn(C)c(OC(F)F)c2Cl)c1NC(=O)/C=C/c1ccccc1` [Compound 1-31], the “growth controlling degree, DIGSP” value is recorded as 80%.

The subject of the next assay is green foxtail (Setaria viridis L.), SETVI. The assay can be described thus: Test Example 2 post-emergence (foliage treatment) herbicidal activity, SETVI. The assay is classed as in vivo. To be noted: 63 g a.i./ha. An outline of the steps: (§3)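 A small sprayer delivered the diluted WP or EC formulation (500 L/ha water, 0.1% v/v spreader) over emerged seedlings in upland soil pots. Damage relative to untreated plants was graded visually from 0 to 100% three weeks or so later (days 20-23).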
In the case of `COc1c(Cl)cc(F)c(-c2nn(C)c(OC(F)F)c2Cl)c1NC(=O)/C=C/c1ccccc1` [Compound 1-31], the “growth controlling degree, SETVI” value was 95%.

A further assay relates to redroot pigweed (Amaranthus retroflexus L.), AMARE. The assay can be described thus: Test Example 2 post-emergence (foliage treatment) herbicidal activity, AMARE. It is filed as in vivo. To be noted: 63 g a.i./ha. An outline of the steps: as §2
Consider `COc1c(Cl)cc(F)c(-c2nn(C)c(OC(F)F)c2Cl)c1NC(=O)/C=C/c1ccccc1` [Compound 1-31], for which the “growth controlling degree, AMARE” value is on record as 100%.

The test system of another assay is prickly sida (Sida spinosa L.), SIDSP. Kind of assay: Test Example 2 post-emergence (foliage treatment) herbicidal activity, SIDSP. The assay is classed as in vivo. To be noted: 63 g a.i./ha. The method in brief: as §3
Consider `COc1c(Cl)cc(F)c(-c2nn(C)c(OC(F)F)c2Cl)c1NC(=O)/C=C/c1ccccc1` [Compound 1-31], for which the “growth controlling degree, SIDSP” value was determined as 100%.

A further assay has as its system velvetleaf (Abutilon theophrasti), ABUTH. The assay can be described thus: Test Example 2 post-emergence (foliage treatment) herbicidal activity, ABUTH. It is filed as in vivo. To be noted: 63 g a.i./ha. An outline of the steps: as §3
For `COc1c(Cl)cc(F)c(-c2nn(C)c(OC(F)F)c2Cl)c1NC(=O)/C=C/c1ccccc1` [Compound 1-31], the “growth controlling degree, ABUTH” value turned out to be 100%.

The subject of the next assay is rice (Oryza sativa L.), ORYSA. Kind of assay: Test Example 2 post-emergence (foliage treatment) herbicidal activity, ORYSA. It is filed as in vivo. To be noted: 63 g a.i./ha. An outline of the steps:
as §2
With `COc1c(Cl)cc(F)c(-c2nn(C)c(OC(F)F)c2Cl)c1NC(=O)/C=C/c1ccccc1` [Compound 1-31], the “growth controlling degree, ORYSA” value is listed as 60%.

A further assay has as its system wheat (Triticum aestivum L.), TRZAX. Kind of assay: Test Example 2 post-emergence (foliage treatment) herbicidal activity, TRZAX. It is filed as in vivo. To be noted: 63 g a.i./ha. An outline of the steps:
as §3
As for `COc1c(Cl)cc(F)c(-c2nn(C)c(OC(F)F)c2Cl)c1NC(=O)/C=C/c1ccccc1` [Compound 1-31], the “growth controlling degree, TRZAX” value turned out to be 20%.

The subject of the next assay is corn (Zea mays L.), ZEAMX. The assay can be described thus: Test Example 2 post-emergence (foliage treatment) herbicidal activity, ZEAMX. It is filed as in vivo. To be noted: 63 g a.i./ha. The method in brief:
as §3
Take `COc1c(Cl)cc(F)c(-c2nn(C)c(OC(F)F)c2Cl)c1NC(=O)/C=C/c1ccccc1` [Compound 1-31]: the “growth controlling degree, ZEAMX” value is recorded as 40%.

The subject of a further assay is soybean (Glycine max Merr.), GLXMA. Kind of assay: Test Example 2 post-emergence (foliage treatment) herbicidal activity, GLXMA. It is filed as in vivo. To be noted: 63 g a.i./ha. The method in brief: as §3
Consider `COc1c(Cl)cc(F)c(-c2nn(C)c(OC(F)F)c2Cl)c1NC(=O)/C=C/c1ccccc1` [Compound 1-31], for which the “growth controlling degree, GLXMA” value was found to be 60%.

The subject of a further assay is barnyardgrass (Echinochiloa oryzicola: ECHOR). Kind of assay: Test Example 3 water application herbicidal activity (paddy), ECHOR. It is filed as in vivo. To be noted: 63 g a.i./ha, water application under submerged condition at 0.5 leaf stage, visually observed 14th day after application; 0 = untreated control, 100 = complete kill. An outline of the steps:
(§4)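 Submerged application in flooded paddy soil (3–4 cm water); weeds treated at 0.5-leaf stage, transplanted rice 4 d after transplanting. Scored visually as % growth control: weeds at 14 d, rice at 21 d.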
As for `COc1c(Cl)cc(F)c(-c2nn(C)c(OC(F)F)c2Cl)c1NC(=O)/C=C/c1ccccc1` [Compound 1-31], the “growth controlling degrees (%) ECHOR” value turned out to be 100%.

The next assay relates to japanese bulrush (Scirpus juncoides: SCPJO). Kind of assay: Test Example 3 water application herbicidal activity (paddy), SCPJO. It is filed as in vivo. To be noted: 63 g a.i./ha, water application under submerged condition at 0.5 leaf stage, visually observed 14th day after application; 0 = untreated control, 100 = complete kill. An outline of the steps:
as §4
For `COc1c(Cl)cc(F)c(-c2nn(C)c(OC(F)F)c2Cl)c1NC(=O)/C=C/c1ccccc1` [Compound 1-31], the “growth controlling degrees (%) SCPJO” value came to 60%.

Another assay deals with japanese ribbon wapato (Sagittaria pygmaea: SA GPY). The assay can be described thus: Test Example 3 water application herbicidal activity (paddy), SAGPY. It is filed as in vivo. To be noted: 63 g a.i./ha, water application under submerged condition, tubers planted, visually observed 14th day after application; 0 = untreated control, 100 = complete kill. An outline of the steps:
as §4
For the compound `COc1c(Cl)cc(F)c(-c2nn(C)c(OC(F)F)c2Cl)c1NC(=O)/C=C/c1ccccc1` [Compound 1-31], the “growth controlling degrees (%) SAGPY” value turned out to be 95%.

In a further assay the test system is rice (Oryza sativa L.: ORYSA). The assay can be described thus: Test Example 3 water application herbicidal activity (paddy), transplanted rice ORYSA. The assay is classed as in vivo. To be noted: 63 g a.i./ha, water application 4th day after transplantation of 2 leaf stage rice, visually observed 21st day after application; 0 = untreated control, 100 = complete kill. The method in brief:
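Flooded paddy-soil pots in greenhouse; ECHOR and SCPJO sown, SAGPY tubers planted a day later, compound applied into 3–4 cm water at weeds' 0.5-leaf stage. Rice transplanted at 2-leaf stage, treated day 4 after transplanting. Visual growth control 0–100% at 14 days (weeds) and 21 days (rice) after application.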
For `COc1c(Cl)cc(F)c(-c2nn(C)c(OC(F)F)c2Cl)c1NC(=O)/C=C/c1ccccc1` [Compound 1-31], the “growth controlling degrees (%) ORYSA” value amounted to 40%.
